# Results from PubChem BioAssay AID1963867 (Molecular Pharmacology Branch, DTP, NCI, 2024).
# Tested on: KRAS-mutant PDC tumor spheroid with HUVEC/MSC, viability
# Test: Anticancer human tumor 327498-153-R-J2-PDC patient-derived uterine carcinosarcoma cell line growth inhibition [KRAS2]
# Conditions: for IC50: curve of first compound; for viability, T/C: stronger effect = lower value
# Summary of the method: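 Combination screen of spheroid viability in tumor-cell co-cultures with endothelial (HUVEC) and mesenchymal stem cell stroma. Each agent was tested in half-log dilutions, topping at clinical Cmax or at 10 microM without a known Cmax.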
# [1] = second compound 0.1 µM, first compound 0.0316 µM
# [2] = second compound 0.1 µM, first compound 0.1 µM
# [3] = second compound 0.1 µM, first compound 0.316 µM
# [4] = second compound 0.1 µM, first compound 1 µM
# [5] = second compound 0.1 µM, first compound 3.16 µM
# [6] = second compound 0.316 µM, first compound 0.0316 µM
# [7] = second compound 0.316 µM, first compound 0.1 µM
# [8] = second compound 0.316 µM, first compound 0.316 µM
# [9] = second compound 0.316 µM, first compound 1 µM
# [10] = second compound 0.316 µM, first compound 3.16 µM
# [11] = second compound 1 µM, first compound 0.0316 µM
# [12] = second compound 1 µM, first compound 0.1 µM
# [13] = second compound 1 µM, first compound 0.316 µM
# [14] = second compound 1 µM, first compound 1 µM
# [15] = second compound 1 µM, first compound 3.16 µM
# [16] = second compound 3.16 µM, first compound 0.0316 µM
# [17] = second compound 3.16 µM, first compound 0.1 µM
# [18] = second compound 3.16 µM, first compound 0.316 µM
# [19] = second compound 3.16 µM, first compound 1 µM
# [20] = second compound 3.16 µM, first compound 3.16 µM
# [21] = second compound 10 µM, first compound 0.0316 µM
# [22] = second compound 10 µM, first compound 0.1 µM
# [23] = second compound 10 µM, first compound 0.316 µM
# [24] = second compound 10 µM, first compound 1 µM
# [25] = second compound 10 µM, first compound 3.16 µM
# 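Also: spheroids exposed to agents for seven days before reading.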
# 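For viability, T/C in this document: 100% = DMSO vehicle wells so lower means fewer viable cells.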
Compound,IC50 (second compound 0.1 µM),IC50 (second compound 0.316 µM),IC50 (second compound 1 µM),IC50 (second compound 3.16 µM),IC50 (second compound 10 µM),"viability, T/C [1]","viability, T/C [2]","viability, T/C [3]","viability, T/C [4]","viability, T/C [5]","viability, T/C [6]","viability, T/C [7]","viability, T/C [8]","viability, T/C [9]","viability, T/C [10]","viability, T/C [11]","viability, T/C [12]","viability, T/C [13]","viability, T/C [14]","viability, T/C [15]",also measured
CC1COCCN1c1cc(-c2ccnn2C)c2ccnc(-c3ccn[nH]3)c2n1 (stereo not given) + CC1OCC2(CCN(c3cnc(Sc4ccnc(N)c4Cl)c(N)n3)CC2)C1N,21 nM,< 10 nM,< 10 nM,< 10 nM,< 10 nM,39%,8.18%,6.79%,8.72%,6.58%,21.5%,8.27%,5.01%,7.64%,4.81%,14.8%,7.95%,4.88%,4.72%,4.24%,"viability, T/C (second compound 0.1 µM, first compound 0.01 µM): 70%; viability, T/C (second compound 0.316 µM, first compound 0.01 µM): 37.1%; viability, T/C (second compound 1 µM, first compound 0.01 µM): 31.1%; viability, T/C (second compound 3.16 µM, first compound 0.01 µM): 23.2%; viability, T/C [16]: 12.1%; viability, T/C [17]: 8.55%; viability, T/C [18]: 5.44%; viability, T/C [19]: 5.2%; viability, T/C [20]: 3.81%; viability, T/C (second compound 10 µM, first compound 0.01 µM): 19.6%; viability, T/C [21]: 13.4%; viability, T/C [22]: 7.85%; viability, T/C [23]: 6.38%; viability, T/C [24]: 5.34%; viability, T/C [25]: 3.63%"
CCNC(=O)CC1N=C(c2ccc(Cl)cc2)c2cc(OC)ccc2-n2c(C)nnc21 (stereo not given) + CC1OCC2(CCN(c3cnc(Sc4ccnc(N)c4Cl)c(N)n3)CC2)C1N,346 nM,102 nM,< 31.6 nM,< 31.6 nM,< 31.6 nM,64.3%,68%,49.8%,37.8%,38.8%,51.8%,51.5%,37.9%,27.9%,26.2%,42%,35.4%,31.7%,18.3%,17.8%,"viability, T/C (second compound 0.1 µM, first compound 10 µM): 27.5%; viability, T/C (second compound 0.316 µM, first compound 10 µM): 22.4%; viability, T/C (second compound 1 µM, first compound 10 µM): 16.8%; viability, T/C [16]: 31.3%; viability, T/C [17]: 26.1%; viability, T/C [18]: 20.4%; viability, T/C [19]: 16.9%; viability, T/C [20]: 13.6%; viability, T/C (second compound 3.16 µM, first compound 10 µM): 11.8%; viability, T/C [21]: 20.1%; viability, T/C [22]: 20.7%; viability, T/C [23]: 18.2%; viability, T/C [24]: 13.9%; viability, T/C [25]: 12%; viability, T/C (second compound 10 µM, first compound 10 µM): 10.9%"
